What was measured:
[1] = IP pharmacokinetics and tissue distribution of C-86 in C57BL/6J mice; type: in vivo, mouse; settings: for AUC(0-inf) / Cmax: male, C57BL/6J, mouse, mice, IP
[2] = system: Huh1 tumors; assay: Huh1 tumors in nude mice; type: in vivo, mouse; settings: huh1 in immunodeficient mice; i.p, 10 mg/kg every day
Description: FIG. 27A: Huh1 tumor-bearing nude mice were treated with C86 (i.p, 10 mg/kg) every day. Three or more independent experiments with at least three replicates per sample type. Two-tailed T test. *p<0.05, **p<0.01, ***p<0.001. FIG. 27B: Equal numbers of Raldh1-KO Huh7 and parental Huh7 cells were seeded and viable cells counted over time. […] FIG. 27C: NU/J mice harboring flank Huh7 tumors were treated i.p with C86 daily or with liposomal chlodronate (CloLipo, 200 μl/mouse) every four days. Tumors were harvested 13 days post tumor induction and analyzed for the frequency (left graph) and number (right graph) of the macrophages (CD45+ F4/80+) under different treatment conditions (X-axis). Three or more independent experiments with at least three replicates per sample type. Two-tailed T test. *p<0.05, **p<0.01, ***p<0.001. FIG. 27D: Pictures depicting size differences amongst tumors in experiment outlined in FIG. 26G. […]
Cultured Huh7, Huh1, Hepa 1-6, Hep55, and FS (as indicated in figure legends) tumor cells were detached using 0.25% trypsin (Gibco, catalog #25200056), washed once with 1×PBS, and counted before implantation. […] Tumor dimensions were measured using a caliper starting at the day indicated in the accompanying figure legend and every two to three days thereafter; volume was calculated by using formula Length*Width^2/2. […]

[3] = system: Phosphodiesterase PDE3; assay: Safetyscreen: PDE3; type: biochemical, human; settings: 10 μM
[4] = target: T1, Adrenergic α2A (Homo sapiens, UniProt P08913); assay: Safetyscreen: Adrenergic α2A; type: binding; settings: read-out: % Inh. Adrenergic α2A
T1 construct: Eurofins Cerep Panlabs (contract panel)
T1 sequence (P08913 whole entry): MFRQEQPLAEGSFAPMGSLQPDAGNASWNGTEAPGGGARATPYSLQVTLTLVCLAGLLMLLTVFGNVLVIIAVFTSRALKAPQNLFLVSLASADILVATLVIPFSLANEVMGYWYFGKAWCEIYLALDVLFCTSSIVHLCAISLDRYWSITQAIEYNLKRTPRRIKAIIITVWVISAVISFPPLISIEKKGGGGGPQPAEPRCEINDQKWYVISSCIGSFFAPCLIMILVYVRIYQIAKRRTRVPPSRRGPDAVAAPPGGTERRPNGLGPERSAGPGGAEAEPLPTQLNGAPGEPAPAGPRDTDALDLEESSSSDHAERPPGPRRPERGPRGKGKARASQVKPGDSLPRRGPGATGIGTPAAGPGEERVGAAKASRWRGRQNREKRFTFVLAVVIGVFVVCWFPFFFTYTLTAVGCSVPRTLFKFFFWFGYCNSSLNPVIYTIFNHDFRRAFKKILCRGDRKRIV

[5] = target: T2, Angiotensin AT1 (Homo sapiens, UniProt P30556); assay: Safetyscreen: Angiotensin AT1; type: binding; settings: read-out: % Inh. Angiotensin AT1
T2 construct: purchased Eurofins Cereps Panlabs
T2 sequence (P30556 whole entry): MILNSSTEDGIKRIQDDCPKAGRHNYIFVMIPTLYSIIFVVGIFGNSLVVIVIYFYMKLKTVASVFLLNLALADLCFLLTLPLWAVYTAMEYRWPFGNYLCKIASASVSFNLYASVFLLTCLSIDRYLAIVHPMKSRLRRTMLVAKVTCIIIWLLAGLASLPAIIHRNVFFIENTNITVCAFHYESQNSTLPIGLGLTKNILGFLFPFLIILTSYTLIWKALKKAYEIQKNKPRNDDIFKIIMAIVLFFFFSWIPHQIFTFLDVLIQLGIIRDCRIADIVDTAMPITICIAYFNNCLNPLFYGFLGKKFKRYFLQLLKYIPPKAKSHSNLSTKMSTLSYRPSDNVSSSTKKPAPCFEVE

[6] = target: T3, Bradykinin B2 (Homo sapiens, UniProt P30411); assay: Safetyscreen: Bradykinin B2; type: binding; settings: read-out: % Inh. Bradykinin B2
T3 construct: purchased Eurofins Cereps Panlabs

[7] = system: Calcium Channel L-Type, Phenylalkylamine; assay: Safetyscreen: Ca channel L-type, phenylalkylamine; type: binding, rat; settings: 10 μM
[8] = target: T4, Cannabinoid CB2 (Homo sapiens, UniProt P34972); assay: Safetyscreen: CB2; type: binding; settings: read-out: % Inh. Cannabinoid CB2
T4 construct: purchased Eurofins Cereps Panlabs
T4 sequence (P34972 whole entry): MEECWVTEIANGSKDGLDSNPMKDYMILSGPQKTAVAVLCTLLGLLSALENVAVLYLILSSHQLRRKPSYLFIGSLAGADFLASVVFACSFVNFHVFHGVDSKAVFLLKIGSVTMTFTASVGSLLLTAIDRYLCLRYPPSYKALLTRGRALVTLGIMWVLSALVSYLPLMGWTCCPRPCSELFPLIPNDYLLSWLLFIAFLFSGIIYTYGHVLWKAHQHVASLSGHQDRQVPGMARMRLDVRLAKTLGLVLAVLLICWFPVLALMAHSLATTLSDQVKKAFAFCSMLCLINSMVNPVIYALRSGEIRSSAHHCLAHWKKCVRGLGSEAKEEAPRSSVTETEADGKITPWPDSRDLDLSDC

[9] = system: Glutamate, Kainate; assay: Safetyscreen: Glutamate, Kainate; type: binding, rat; settings: 10 μM
[10] = target: T5, Glutamate, Metabotropic, mGlu5 (Homo sapiens, UniProt P41594); assay: Safetyscreen: mGlu5; type: binding; settings: read-out: % Inh. Glutamate, Metabotropic, mGlu5
T5 construct: purchased Eurofins Cereps Panlabs
T5 sequence (P41594 21-1212): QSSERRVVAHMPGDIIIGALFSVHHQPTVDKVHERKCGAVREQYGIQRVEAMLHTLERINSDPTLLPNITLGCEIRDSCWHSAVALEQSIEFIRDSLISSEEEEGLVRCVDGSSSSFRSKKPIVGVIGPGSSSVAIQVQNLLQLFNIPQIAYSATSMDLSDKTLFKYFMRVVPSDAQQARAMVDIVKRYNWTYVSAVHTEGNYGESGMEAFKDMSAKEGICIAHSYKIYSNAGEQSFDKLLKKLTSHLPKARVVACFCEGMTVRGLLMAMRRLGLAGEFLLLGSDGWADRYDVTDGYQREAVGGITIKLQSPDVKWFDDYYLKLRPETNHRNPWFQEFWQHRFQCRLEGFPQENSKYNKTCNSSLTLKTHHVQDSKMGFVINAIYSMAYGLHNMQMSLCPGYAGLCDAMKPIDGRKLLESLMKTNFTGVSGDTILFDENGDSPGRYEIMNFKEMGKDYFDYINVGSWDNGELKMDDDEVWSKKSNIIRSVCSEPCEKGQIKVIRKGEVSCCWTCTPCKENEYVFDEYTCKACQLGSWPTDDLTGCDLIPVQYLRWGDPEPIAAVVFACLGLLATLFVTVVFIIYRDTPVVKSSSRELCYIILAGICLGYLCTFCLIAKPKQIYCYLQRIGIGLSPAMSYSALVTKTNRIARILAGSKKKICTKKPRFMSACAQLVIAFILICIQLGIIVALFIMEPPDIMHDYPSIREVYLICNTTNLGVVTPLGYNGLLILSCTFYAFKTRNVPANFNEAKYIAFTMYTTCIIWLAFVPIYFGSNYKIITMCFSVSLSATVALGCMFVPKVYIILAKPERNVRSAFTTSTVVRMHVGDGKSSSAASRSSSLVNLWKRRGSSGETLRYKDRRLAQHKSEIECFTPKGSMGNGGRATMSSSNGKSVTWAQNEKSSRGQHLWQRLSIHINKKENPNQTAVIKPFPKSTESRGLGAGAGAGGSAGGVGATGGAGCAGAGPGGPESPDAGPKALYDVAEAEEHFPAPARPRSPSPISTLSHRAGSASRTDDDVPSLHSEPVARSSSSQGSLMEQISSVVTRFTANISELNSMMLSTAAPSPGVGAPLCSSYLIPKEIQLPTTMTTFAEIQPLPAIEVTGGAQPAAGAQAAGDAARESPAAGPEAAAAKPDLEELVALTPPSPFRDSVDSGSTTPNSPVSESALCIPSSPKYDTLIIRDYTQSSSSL

[11] = system: Nicotinic Acetylcholine; assay: Safetyscreen: Nicotinic Acetylcholine; type: binding, human; settings: 10 μM
[12] = target: T6, PPARγ (Homo sapiens, UniProt P37231); assay: Safetyscreen: PPARγ; type: binding
T6 construct: Eurofins Cereps Panlabs (contract panel)
T6 sequence (P37231 whole entry): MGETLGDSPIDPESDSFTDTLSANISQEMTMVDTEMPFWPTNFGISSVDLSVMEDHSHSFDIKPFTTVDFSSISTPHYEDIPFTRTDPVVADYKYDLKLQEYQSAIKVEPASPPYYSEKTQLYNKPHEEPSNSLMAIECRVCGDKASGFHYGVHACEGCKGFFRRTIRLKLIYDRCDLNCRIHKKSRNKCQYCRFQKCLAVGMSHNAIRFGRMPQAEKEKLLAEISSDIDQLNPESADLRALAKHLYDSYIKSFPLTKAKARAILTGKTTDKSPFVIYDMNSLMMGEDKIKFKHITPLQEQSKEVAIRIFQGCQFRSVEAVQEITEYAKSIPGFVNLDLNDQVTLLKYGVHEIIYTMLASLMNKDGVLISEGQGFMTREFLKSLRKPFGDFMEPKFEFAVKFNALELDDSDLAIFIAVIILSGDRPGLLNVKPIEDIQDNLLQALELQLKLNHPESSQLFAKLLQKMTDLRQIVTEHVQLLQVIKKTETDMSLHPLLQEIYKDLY

[13] = target: T7, Serotonin (5-Hydroxytryptamine) 5-HT1A (Homo sapiens, UniProt P08908); assay: Safetyscreen: 5-HT1A; type: binding; settings: read-out: % Inh. Serotonin (5-Hydroxytryptamine) 5-HT1A
T7 construct: Eurofins Cereps Panlabs (contract panel)
T7 sequence (P08908 whole entry): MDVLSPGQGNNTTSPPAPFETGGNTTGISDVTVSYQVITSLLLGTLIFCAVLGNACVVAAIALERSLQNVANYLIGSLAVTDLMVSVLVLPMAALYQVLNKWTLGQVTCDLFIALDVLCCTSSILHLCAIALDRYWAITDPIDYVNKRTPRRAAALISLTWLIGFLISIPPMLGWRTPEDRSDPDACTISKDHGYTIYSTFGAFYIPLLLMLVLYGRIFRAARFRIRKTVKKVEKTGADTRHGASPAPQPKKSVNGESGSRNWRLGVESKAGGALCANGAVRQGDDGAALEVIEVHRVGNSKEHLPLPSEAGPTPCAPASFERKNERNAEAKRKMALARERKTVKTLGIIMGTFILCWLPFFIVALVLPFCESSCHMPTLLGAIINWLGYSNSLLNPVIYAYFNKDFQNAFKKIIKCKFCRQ

[14] = target: T8, Serotonin (5-Hydroxytryptamine) 5-HT1B (Homo sapiens, UniProt P28222); assay: Safetyscreen: 5-HT1B; type: binding; settings: read-out: % Inh. Serotonin (5-Hydroxytryptamine) 5-HT1B
T8 construct: Eurofins Cereps Panlabs (contract panel)
T8 sequence (P28222 whole entry): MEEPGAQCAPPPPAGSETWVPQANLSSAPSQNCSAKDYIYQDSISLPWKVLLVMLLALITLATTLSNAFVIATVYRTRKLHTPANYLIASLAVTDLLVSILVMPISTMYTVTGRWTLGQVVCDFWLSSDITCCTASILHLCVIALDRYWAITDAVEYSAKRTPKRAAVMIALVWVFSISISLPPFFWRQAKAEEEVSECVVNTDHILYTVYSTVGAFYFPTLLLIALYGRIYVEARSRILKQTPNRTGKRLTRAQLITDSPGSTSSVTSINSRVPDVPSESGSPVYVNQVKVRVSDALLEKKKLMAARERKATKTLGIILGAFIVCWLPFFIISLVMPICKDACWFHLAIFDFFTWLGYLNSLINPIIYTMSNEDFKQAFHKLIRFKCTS

[15] = target: T9, Serotonin (5-Hydroxytryptamine) 5-HT3 (Homo sapiens, UniProt P46098); assay: Safetyscreen: 5-HT3; type: binding; settings: read-out: % Inh. Serotonin (5-Hydroxytryptamine) 5-HT3
T9 construct: Eurofins Cereps Panlabs (contract panel)
T9 sequence (P46098 24-478): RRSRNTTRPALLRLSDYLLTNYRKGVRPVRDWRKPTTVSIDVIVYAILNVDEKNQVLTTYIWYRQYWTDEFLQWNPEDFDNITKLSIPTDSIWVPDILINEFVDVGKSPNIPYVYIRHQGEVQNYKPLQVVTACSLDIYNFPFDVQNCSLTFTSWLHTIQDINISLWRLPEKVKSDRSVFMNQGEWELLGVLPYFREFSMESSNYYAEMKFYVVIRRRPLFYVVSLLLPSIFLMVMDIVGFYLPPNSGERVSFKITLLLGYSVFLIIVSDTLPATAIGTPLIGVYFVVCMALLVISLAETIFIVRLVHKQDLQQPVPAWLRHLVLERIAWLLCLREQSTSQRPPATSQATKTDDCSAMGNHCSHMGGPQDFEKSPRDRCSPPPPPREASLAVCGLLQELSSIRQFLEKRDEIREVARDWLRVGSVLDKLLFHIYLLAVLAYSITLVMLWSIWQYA

[16] = target: T10, Transporter, Serotonin (5-Hydroxytryptamine) (SERT) (Homo sapiens, UniProt P31645); assay: Safetyscreen: SERT; type: binding; settings: read-out: % Inh. Transporter, Serotonin (5-Hydroxytryptamine) (SERT)
T10 construct: purchased Eurofins Cereps Panlabs
T10 sequence (P31645 whole entry): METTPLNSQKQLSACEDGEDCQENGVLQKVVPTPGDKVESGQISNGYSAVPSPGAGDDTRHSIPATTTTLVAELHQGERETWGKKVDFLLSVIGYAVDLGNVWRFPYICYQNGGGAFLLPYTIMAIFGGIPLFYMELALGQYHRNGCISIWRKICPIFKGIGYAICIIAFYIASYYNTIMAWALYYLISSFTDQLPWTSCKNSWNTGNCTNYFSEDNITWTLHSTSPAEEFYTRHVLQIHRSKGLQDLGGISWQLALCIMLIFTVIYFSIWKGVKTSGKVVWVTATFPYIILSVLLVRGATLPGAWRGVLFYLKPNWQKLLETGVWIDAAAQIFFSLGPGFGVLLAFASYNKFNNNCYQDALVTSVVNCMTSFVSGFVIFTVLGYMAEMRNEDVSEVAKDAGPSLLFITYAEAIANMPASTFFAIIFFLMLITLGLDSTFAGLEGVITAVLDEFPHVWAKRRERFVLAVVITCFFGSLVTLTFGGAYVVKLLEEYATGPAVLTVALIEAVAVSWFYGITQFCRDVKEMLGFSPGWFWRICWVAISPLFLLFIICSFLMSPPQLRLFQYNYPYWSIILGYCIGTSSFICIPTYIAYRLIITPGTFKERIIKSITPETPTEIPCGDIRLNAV

In the case of `CS(=O)(=O)N1CCN(C(=O)c2cnc3ccc(F)cc3c2N2CCC(C#N)(c3ccccc3)CC2)CC1` [Compound C-86, 1-(6-fluoro-3-(4-(methylsulfonyl)piperazine-1-carbonyl)quinolin-4-yl)-4-phenylpiperidine-4-carbonitrile], the “bio-distribution in various tissues” value ([1]; delivered i.p.) is reported as “good bio-distribution”, the AUC(0-inf) ([1]; 10 mg/kg, adipose (mesenteric)) is reported as 121000 ng·h/mL and the Cmax ([1]; 10 mg/kg, adipose (mesenteric)) is reported as 45200 ng/mL. For the same compound, the AUC(0-inf) ([1]; 10 mg/kg, brain) was 753 ng·h/mL, the Cmax ([1]; 10 mg/kg, brain) was 362 ng/mL and the AUC(0-inf) ([1]; 10 mg/kg, liver) was 32900 ng·h/mL. It also gave a Cmax ([1]; 10 mg/kg, liver) of 27600 ng/mL, an AUC(0-inf) ([1]; 10 mg/kg, pancreas) of 35000 ng·h/mL and a Cmax ([1]; 10 mg/kg, pancreas) of 34400 ng/mL. For the same compound, the AUC(0-inf) ([1]; 10 mg/kg, plasma) was 3720 ng·h/mL, the Cmax ([1]; 10 mg/kg, plasma) was 2930 ng/mL and the AUC(0-inf) ([1]; 30 mg/kg, adipose (mesenteric)) was 832000 ng·h/mL. The Cmax ([1]; 30 mg/kg, adipose (mesenteric)) was 140000 ng/mL, the AUC(0-inf) ([1]; 30 mg/kg, brain) was 4520 ng·h/mL and the Cmax ([1]; 30 mg/kg, brain) was 1150 ng/mL. The AUC(0-inf) ([1]; 30 mg/kg, liver) was 174000 ng·h/mL, the Cmax ([1]; 30 mg/kg, liver) was 70500 ng/mL and the AUC(0-inf) ([1]; 30 mg/kg, pancreas) was 276000 ng·h/mL. The Cmax ([1]; 30 mg/kg, pancreas) was 149000 ng/mL, the AUC(0-inf) ([1]; 30 mg/kg, plasma) was 28000 ng·h/mL and the Cmax ([1]; 30 mg/kg, plasma) was 11600 ng/mL. For the same compound, the tumor inhibition [2] was “significant tumor inhibition”, the “% Inh. Phosphodiesterase PDE3” value [3] was −23% and the inhibition at 10 µM [4] was 0%. The inhibition at 10 µM [5] was 19%, the inhibition at 10 µM [6] was 2% and the “% Inh. Calcium Channel L-Type, Phenylalkylamine” value [7] was 21%. The inhibition at 10 µM [8] was 21%, the “% Inh. Glutamate, Kainate” value [9] was 11% and the inhibition at 10 µM [10] was 16%. For the same compound, the “% Inh. Nicotinic Acetylcholine” value [11] was 5%, the inhibition at 10 µM [12] was 12% and the inhibition at 10 µM [13] was 5%. For the same compound, the inhibition at 10 µM [14] was -21%, the inhibition at 10 µM [15] was 2% and the inhibition at 10 µM [16] was 17%.

Reference: patent US20260248799A1, “COMBINATIONS OF RETINALDEHYDE DEHYDROGENASE 1 (RALDH1) INHIBITORS AND IMMUNOSTIMULATORS AND METHODS USING SAME” (The Trustees of the University of Pennsylvania, priority 2023, published 2026)
